In article PMC8341910, “Structural and biophysical insights into the mode of covalent binding of rationally designed potent BMX inhibitors” (RSC Chemical Biology, 2020):
“And” between values parts separate entries of the source, which are not always exact repeats. Equal values may be shown once.

Key:
PC3 = experiment: Multi cell line growth assay (CellTiter-Glo, 72 h); type: cell-based, human; conditions: Homo sapiens, PC-3, Prostate, ND = no growth inhibition observed
U-87MG = experiment: Multi cell line growth assay (CellTiter-Glo, 72 h); type: cell-based; conditions: Homo sapiens, Brain, ND = no growth inhibition observed
SK-N-MC = experiment: Multi cell line growth assay (CellTiter-Glo, 72 h); type: cell-based, human; conditions: Homo sapiens, SK-N-MC, Brain, ND = no growth inhibition observed
CAOV3 = experiment: Multi cell line growth assay (CellTiter-Glo, 72 h); type: cell-based, human; conditions: Homo sapiens, Caov-3, Ovary, ND = no growth inhibition observed
DAUDI = experiment: Multi cell line growth assay (CellTiter-Glo, 72 h); type: cell-based, human; conditions: Homo sapiens, Daudi, Lymphoid, ND = no growth inhibition observed
BMX = target: T1, BMX (Homo sapiens, UniProt P51813); experiment: Kinetic characterization with ADP-Glo kinase assay; type: biochemical; set-up: purchased Promega Corporation (USA) V4512; conditions: duplicate, mean ± S.D.
T1 sequence (P51813 1-675): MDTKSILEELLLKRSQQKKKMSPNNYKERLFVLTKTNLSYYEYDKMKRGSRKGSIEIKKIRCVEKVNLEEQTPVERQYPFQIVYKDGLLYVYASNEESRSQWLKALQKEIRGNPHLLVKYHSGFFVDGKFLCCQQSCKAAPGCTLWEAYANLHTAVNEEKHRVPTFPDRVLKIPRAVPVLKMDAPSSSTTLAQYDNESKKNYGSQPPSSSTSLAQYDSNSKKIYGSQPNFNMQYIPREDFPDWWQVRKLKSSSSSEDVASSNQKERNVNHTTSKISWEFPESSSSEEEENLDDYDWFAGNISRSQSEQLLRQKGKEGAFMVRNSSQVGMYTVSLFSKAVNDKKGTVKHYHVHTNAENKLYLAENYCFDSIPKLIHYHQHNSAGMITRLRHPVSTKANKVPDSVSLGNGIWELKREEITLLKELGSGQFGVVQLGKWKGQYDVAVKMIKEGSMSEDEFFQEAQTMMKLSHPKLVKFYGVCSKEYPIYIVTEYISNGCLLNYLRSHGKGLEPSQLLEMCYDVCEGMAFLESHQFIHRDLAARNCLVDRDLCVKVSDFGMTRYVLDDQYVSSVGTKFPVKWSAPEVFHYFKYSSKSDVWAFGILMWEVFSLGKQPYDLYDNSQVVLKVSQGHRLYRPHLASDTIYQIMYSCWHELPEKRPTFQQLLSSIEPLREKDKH
Description: The inactivation of BMX occurs in a two-step process that is governed by two parameters: the affinity of the initial non-covalent binding, KI, and the rate of the subsequent covalent bond-forming reaction with the thiol of the cysteine residue, kinact. […]. […] Thus, taking into account that all the analogues have the same Michael acceptor moiety, the enhanced activity must be a result of the structural modifications introduced in the scaffold. […]
Kinetic characterization using an ADP-GLOTM kinase assay:
The BMX enzyme system (Catalog. V4512) and the ADP-GloTM kinase assay were purchased from Promega Corporation (USA). In each kinase reaction, the concentration of BMX was set to 4.5 ng/µL. The peptide substrate Poly (4:1 Glu, Tyr) and ATP concentrations were set to 0.25 mg/mL and 50 µM, respectively. BMX was pre-incubated with different inhibitor concentrations (10-fold serial dilutions, starting at 1 mM), over different time periods (2 - 60 min), before initiating the kinase reactions. Reactions were started by adding 2.5X Poly E4Y1/ATP mixture. The reactions were carried out in a 384-well plate, stopping all at the same time with the addition of 5 µL of ADP-GloTM reagent, to consume the remaining ATP within 40 min. Then, 10 µL of kinase detection reagent was added into the wells and incubated for 30 min to produce a luminescence signal. The signal was measured using an Infinite M200 […]
observed rate constants for inhibition (kobs), at different inhibitor concentrations, were determined from the slope of a semi-logarithmic plot of inhibition versus time, and re-plotted against inhibitor concentration (nM). The experimental values were fitted into a hyperbolic function using GraphPad Prism 8 ([…]), to obtain the KI, kinact, and kinact/KI, as described previously.12 […]
(Thermo Fisher Scientific) using gold-coated glass needles. […]

[1] = target: NanoLuc®-BMX fusion vector in HEK293 cells (Homo sapiens, UniProt P51813); experiment: NanoBRET TE intracellular kinase assay; type: cell-based; conditions: HEK293 transiently transfected with BMX; 1 h; duplicate, mean ± S.D.; read-out: intracellular target engagement IC50
Description: Target Engagement Intracellular Kinase Assay:
In-cell target engagement was performed at the Reaction Biology Corporation (USA) using the NanoBRETTM technology. Very briefly, HEK296 cells, purchased from ATCC, were
with the reference compound Dasatinib, for 1 hour of incubation. Compounds were diluted 10 times with 3-fold dilution, starting at 1 µM. Curve fits were performed only when % NanoBret
determined using the GraphPad Prism 8 (USA).

[2] = target: JAK1(JH1domain-catalytic) (Homo sapiens, UniProt P23458); experiment: KINOMEscan binding; conditions: read-out: % Ctrl JAK1(JH1domain-catalytic)
Chain of JAK1(JH1domain-catalytic) (P23458 867-1154 limits assumed): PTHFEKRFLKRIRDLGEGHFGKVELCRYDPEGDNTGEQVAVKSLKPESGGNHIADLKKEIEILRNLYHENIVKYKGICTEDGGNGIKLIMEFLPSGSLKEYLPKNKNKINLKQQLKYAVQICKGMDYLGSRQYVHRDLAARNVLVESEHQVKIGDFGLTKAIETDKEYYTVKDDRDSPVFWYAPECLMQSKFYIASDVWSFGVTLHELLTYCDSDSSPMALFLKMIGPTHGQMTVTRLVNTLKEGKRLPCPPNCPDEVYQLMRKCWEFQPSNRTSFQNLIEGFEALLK
Description: (§1) Therefore, we included the whole TEC, EGFR and JAK family in our screening, and the Src family and Lkb1, which also have a cysteine within the same sequence alignment.
(§2) Kinome selectivity was performed with DiscoverX KINOMEscan™ technology.

[3] = target: JAK2(JH1domain-catalytic) (Homo sapiens, UniProt O60674); experiment: KINOMEscan binding; conditions: read-out: % Ctrl JAK2(JH1domain-catalytic)
Chain of JAK2(JH1domain-catalytic) (O60674 841-1132 limits assumed): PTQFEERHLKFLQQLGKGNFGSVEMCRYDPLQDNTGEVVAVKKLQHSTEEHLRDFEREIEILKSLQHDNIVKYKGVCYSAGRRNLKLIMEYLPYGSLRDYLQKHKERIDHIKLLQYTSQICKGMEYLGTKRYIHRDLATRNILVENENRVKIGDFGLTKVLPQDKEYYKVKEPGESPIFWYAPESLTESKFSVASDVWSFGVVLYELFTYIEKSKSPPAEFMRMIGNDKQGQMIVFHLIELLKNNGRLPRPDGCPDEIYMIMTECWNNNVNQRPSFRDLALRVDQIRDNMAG
Description: (§3) Therefore, we included the whole TEC, EGFR and JAK family in our screening, and the Src family and Lkb1, which also have a cysteine within the same sequence alignment. We also included kinases involved in upstream (Src, FAK, PI3K, mTOR, PDK1) and downstream (Akt, PAK1, TAM) regulation of BMX signaling pathway and non-receptor tyrosine protein kinase Abl.
as §2

[4] = target: TYK2(JH1domain-catalytic) (Homo sapiens, UniProt P29597); experiment: KINOMEscan binding; conditions: read-out: % Ctrl TYK2(JH1domain-catalytic)
Chain of TYK2(JH1domain-catalytic) (P29597 889-1187 limits assumed): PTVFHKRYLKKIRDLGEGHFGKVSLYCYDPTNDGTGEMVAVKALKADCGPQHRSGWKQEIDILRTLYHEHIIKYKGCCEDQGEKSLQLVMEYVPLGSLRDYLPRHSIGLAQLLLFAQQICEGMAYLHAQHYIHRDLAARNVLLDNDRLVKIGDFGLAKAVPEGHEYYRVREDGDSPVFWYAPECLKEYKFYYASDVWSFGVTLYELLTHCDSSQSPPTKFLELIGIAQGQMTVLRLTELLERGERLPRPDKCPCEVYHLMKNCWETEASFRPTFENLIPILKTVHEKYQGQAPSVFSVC
Description: as §3, §2

PIK3CG = PIK3CG (Homo sapiens, UniProt P48736); experiment: KINOMEscan binding; conditions: read-out: % Ctrl PIK3CG
Description: as §3, §2

PIK3CD = PIK3CD (Homo sapiens, UniProt O00329); experiment: KINOMEscan binding; conditions: read-out: % Ctrl PIK3CD
Chain of PIK3CD (O00329 whole entry): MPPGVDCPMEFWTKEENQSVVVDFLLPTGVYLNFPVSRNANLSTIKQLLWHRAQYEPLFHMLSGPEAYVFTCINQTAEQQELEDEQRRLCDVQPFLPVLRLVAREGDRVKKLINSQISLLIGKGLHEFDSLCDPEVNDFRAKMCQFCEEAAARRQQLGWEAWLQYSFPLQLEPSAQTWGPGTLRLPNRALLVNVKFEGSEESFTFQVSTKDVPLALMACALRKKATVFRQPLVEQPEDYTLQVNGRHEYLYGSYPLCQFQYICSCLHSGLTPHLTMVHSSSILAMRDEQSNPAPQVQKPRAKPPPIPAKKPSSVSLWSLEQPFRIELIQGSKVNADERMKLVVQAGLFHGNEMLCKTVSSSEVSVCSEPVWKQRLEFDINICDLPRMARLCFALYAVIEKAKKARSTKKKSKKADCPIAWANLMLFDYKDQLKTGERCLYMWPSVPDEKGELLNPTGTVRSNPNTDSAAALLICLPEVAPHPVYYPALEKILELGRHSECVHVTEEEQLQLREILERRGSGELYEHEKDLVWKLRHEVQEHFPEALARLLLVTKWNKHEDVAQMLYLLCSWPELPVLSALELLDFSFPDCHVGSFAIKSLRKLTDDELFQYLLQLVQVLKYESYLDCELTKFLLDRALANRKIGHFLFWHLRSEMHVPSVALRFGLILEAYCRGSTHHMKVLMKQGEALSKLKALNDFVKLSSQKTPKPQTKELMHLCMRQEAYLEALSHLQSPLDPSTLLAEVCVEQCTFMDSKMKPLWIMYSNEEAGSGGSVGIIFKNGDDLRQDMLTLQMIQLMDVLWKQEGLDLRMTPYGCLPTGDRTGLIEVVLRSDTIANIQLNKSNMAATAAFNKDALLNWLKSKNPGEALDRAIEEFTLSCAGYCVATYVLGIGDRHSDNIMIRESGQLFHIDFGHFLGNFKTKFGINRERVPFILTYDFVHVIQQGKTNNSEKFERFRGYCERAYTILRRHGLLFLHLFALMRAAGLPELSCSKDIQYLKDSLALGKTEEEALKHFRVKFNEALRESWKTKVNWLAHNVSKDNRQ
Description: as §3, §2

FYN = FYN (Homo sapiens, UniProt P06241); experiment: KINOMEscan binding; conditions: read-out: % Ctrl FYN
Chain of FYN (P06241 whole entry): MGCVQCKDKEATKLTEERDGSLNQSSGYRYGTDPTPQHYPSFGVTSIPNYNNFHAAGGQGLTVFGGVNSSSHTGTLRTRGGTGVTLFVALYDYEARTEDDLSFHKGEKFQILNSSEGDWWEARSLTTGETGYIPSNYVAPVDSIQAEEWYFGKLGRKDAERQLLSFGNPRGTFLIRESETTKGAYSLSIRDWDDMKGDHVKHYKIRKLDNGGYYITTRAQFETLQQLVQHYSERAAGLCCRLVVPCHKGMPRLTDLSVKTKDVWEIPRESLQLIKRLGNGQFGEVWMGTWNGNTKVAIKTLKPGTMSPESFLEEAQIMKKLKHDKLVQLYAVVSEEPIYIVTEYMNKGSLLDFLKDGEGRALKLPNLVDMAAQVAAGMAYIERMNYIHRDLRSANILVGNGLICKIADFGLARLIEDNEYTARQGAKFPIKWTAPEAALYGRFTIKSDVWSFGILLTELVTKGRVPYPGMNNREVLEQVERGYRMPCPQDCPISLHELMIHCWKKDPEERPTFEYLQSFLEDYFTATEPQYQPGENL
Description: as §3, §2

SRC = SRC (Homo sapiens, UniProt P12931); experiment: KINOMEscan binding; conditions: read-out: % Ctrl SRC
Description: as §3, §2

YES1 = YES1 (Homo sapiens, UniProt P07947); experiment: KINOMEscan binding; conditions: read-out: % Ctrl YES1
Description: as §1, §2

LYN = LYN (Homo sapiens, UniProt P07948); experiment: KINOMEscan binding; conditions: read-out: % Ctrl LYN
Chain of LYN (P07948 whole entry): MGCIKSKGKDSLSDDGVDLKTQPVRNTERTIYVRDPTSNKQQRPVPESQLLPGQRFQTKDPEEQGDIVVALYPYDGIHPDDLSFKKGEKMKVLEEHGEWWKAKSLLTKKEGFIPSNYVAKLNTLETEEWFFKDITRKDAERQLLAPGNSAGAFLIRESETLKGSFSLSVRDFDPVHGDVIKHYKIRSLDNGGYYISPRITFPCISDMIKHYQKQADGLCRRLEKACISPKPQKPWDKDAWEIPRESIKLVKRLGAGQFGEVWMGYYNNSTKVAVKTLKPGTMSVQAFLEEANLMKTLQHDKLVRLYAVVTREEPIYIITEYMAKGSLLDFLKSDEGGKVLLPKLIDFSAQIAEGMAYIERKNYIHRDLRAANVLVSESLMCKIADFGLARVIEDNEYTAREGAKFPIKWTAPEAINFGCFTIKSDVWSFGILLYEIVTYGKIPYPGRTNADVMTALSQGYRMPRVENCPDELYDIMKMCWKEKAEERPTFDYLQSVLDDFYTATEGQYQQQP
Description: as §3, §2

AKT2 = AKT2 (Homo sapiens, UniProt P31751); experiment: KINOMEscan binding; conditions: read-out: % Ctrl AKT2
Chain of AKT2 (P31751 whole entry): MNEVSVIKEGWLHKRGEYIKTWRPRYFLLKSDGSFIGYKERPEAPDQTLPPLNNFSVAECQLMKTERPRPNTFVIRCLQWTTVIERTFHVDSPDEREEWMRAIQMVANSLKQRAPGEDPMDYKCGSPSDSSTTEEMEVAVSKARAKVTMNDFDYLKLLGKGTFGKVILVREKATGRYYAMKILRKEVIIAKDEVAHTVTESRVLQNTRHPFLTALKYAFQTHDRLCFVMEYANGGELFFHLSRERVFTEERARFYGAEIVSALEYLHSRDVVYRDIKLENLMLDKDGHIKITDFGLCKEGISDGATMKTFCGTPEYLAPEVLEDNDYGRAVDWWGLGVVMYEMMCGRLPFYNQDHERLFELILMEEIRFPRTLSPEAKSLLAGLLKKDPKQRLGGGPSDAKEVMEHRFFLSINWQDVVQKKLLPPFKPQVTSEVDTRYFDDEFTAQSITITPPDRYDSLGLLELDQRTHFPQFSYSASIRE
Description: as §3, §2

AXL = AXL (Homo sapiens, UniProt P30530); experiment: KINOMEscan binding; conditions: read-out: % Ctrl AXL
Description: as §3, §2

ABL1-phosphorylated = ABL1-phosphorylated (Homo sapiens, UniProt P00519); experiment: KINOMEscan binding; conditions: read-out: % Ctrl ABL1-phosphorylated
Chain of ABL1-phosphorylated (P00519 whole entry): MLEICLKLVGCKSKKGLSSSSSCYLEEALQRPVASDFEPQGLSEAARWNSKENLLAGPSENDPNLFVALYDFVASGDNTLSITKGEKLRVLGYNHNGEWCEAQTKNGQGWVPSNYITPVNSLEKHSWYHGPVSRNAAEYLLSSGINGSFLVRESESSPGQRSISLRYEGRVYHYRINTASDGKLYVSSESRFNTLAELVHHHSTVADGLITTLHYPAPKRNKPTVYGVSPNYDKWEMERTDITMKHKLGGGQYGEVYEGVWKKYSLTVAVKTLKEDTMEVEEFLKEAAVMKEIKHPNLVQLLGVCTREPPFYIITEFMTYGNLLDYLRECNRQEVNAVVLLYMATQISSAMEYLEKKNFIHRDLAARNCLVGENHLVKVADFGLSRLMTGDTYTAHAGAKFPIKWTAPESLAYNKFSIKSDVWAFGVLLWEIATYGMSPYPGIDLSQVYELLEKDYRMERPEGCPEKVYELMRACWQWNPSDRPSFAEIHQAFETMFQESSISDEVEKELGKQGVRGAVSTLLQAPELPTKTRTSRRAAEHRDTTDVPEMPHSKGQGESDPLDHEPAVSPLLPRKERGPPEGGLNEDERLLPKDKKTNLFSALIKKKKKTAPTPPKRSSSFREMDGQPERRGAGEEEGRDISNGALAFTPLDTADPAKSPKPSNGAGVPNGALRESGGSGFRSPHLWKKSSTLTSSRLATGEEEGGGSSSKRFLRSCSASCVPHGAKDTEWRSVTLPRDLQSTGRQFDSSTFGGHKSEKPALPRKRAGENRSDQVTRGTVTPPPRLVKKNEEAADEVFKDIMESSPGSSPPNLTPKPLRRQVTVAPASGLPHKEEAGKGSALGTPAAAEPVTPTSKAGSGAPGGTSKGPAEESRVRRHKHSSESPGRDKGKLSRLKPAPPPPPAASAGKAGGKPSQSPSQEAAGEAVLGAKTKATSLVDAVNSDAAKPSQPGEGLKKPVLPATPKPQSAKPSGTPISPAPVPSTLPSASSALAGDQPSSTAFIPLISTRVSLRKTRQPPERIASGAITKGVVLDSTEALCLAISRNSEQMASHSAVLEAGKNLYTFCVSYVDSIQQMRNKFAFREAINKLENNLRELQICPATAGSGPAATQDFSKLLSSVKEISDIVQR
Description: as §3, §2

SMILES	GI50 (PC3)	GI50 (U-87MG)	GI50 (SK-N-MC)	GI50 (CAOV3)	GI50 (DAUDI)	k inact (BMX)	IC50 [1]	remaining binding at 1 µM [2]	remaining binding at 1 µM [3]	remaining binding at 1 µM [4]	remaining binding at 1 µM (PIK3CG)	remaining binding at 1 µM (PIK3CD)	remaining binding at 1 µM (FYN)	remaining binding at 1 µM (SRC)	remaining binding at 1 µM (YES1)	remaining binding at 1 µM (LYN)	remaining binding at 1 µM (AKT2)	remaining binding at 1 µM (AXL)	remaining binding at 1 µM (ABL1-phosphorylated)
C=CC(=O)Nc1cc(-n2c(=O)ccc3cnc4cc(-c5ccc(NS(C)(=O)=O)cc5)ccc4c32)ccc1C [JS24]	4.8 µM	5.04 ± 0.01 µM	8.53 ± 0.44 µM	8.56 µM	1.27 ± 0.05 µM	0.335 min⁻¹ and 0.335 ± 0.001 min⁻¹	–	–	–	–	–	–	–	–	–	–	–	–	–
C=CC(=O)Nc1cc(C)cc(-n2c(=O)ccc3cnc4cc(-c5ccc(NS(C)(=O)=O)cc5)ccc4c32)c1 [JS25]	–	–	–	–	–	–	0.0448 µM and 0.045 µM	93%	81%	100%	64%	100%	99%	92%	85%	100%	94%	93%	100%
